# Paper PMC9519446, “Discovery of an Orally Active Benzoxaborole Prodrug Effective in the Treatment of Chagas Disease in Non-human Primates” (Nature microbiology, 2022)
# Several values for one entry are separate records, joined by “and”; a condition that tells them apart may be missing. Equal entries are not always repeated. Where two headings read alike, the source gives them in different places.
# What was measured:
# [1] = system: T. cruzi extracellular amastigotes; test: Extracellular amastigote assay (ATPlite luminescence, 48 hours); format: cell-based; conditions: Trypanosoma cruzi, extracellular amastigotes
# Protocol: (§1) The in vitro anti-T. cruzi amastiogote activity assay was performed and optimized based on the protocol described previously. The change in tdTomato fluorescence intensity was determined as a measurement of growth over 72 hours of culture. For assaying drug effects on extracellular amastigotes, trypomastigotes were collected from infected Vero cell cultures and converted in acidic media as previously described. Amastigotes (50,000/well) were incubated with 2-fold serial dilutions of compounds for 48 hours. The ATP production was used as an indication of growth in this case, and was measured by ATPlite Luminescence ATP Detection Assay System (PerkinElmer). Both fluorescence and luminescence were read using a BioTek Synergy Hybrid Multi-Mode reader equipped with the software Gene5 v 2.0 (BioTek). The dose-response curve was generated by […] analysis with GraphPad Prism v9.4.0 (GraphPad Software).
# [2] = system: T. cruzi intracellular amastigotes; test: In vitro anti-T. cruzi intracellular amastigote growth inhibition assay (tdTomato fluorescence over 72 hours, Vero cells); format: cell-based, Trypanosoma cruzi; conditions: for activity at 0.00407 µM: [uM] -2.39 [sic]
# Protocol: as §1
# [3] = system: TcCBP KO T. cruzi intracellular amastigotes; test: microbe, parasite or virus in culture; format: cell-based; conditions: Trypanosoma cruzi, read-out: TcCBP KO IC50
# Protocol: as §1
# The CBPs knockout was produced using ribonucleoprotein (RNP) complexes as previously described. Briefly, Brazil tdTomato strain epimastigotes were electroporated with RNP complexes containing SaCas9 and an sgRNA targeting CBP gene TcBrA4_0048170, plus a repair template containing stop codons in all three reading frames and the M13 sequence for use as a PCR anchor. The sgRNA targeted the ‘[…]” sequence. After 2 days of recovery, single-cell clones were derived by depositing epimastigotes into a 96-well plate at a density of 0.5 cell/well by using a MoFlo Astrios EQ cell sorter (Beckman Coulter). DNA isolation was performed for clones, and primer pair of 5’-[…]-3’ and 5’- […] -3’ was used for amplifying the wild type allele, while primer pair of M13-F: 5’- […] -3’ and 5’- […] -3’ was used for amplifying the mutant allele.
# [4] = system: CPSF3-OE T. cruzi intracellular amastigotes; test: microbe, parasite or virus in culture; format: cell-based; conditions: Trypanosoma cruzi; for IC50: read-out: CPSF3-OE IC50, intracellular amastigotes; for activity at 0.1 µM / activity at 0.4 µM / activity at 0.7 µM / activity at 1 µM / activity at 1.3 µM / activity at 1.6 µM: 72 h, read-out: % of maximum, CPSF3-OE
# Protocol: as §1
# The CPSF3 gene was amplified using primers ‘[…]’ and ‘[…]’, and integrated into the pTrex vector [47] by NEBuilder HiFi DNA assembly (New England Biolabs). The construct of pTrex-CPSF was then transfected into Brazil tdTomato epimastigotes and selected by 60ug/ml blasticidin.
# To confirm the CPSF overexpression in the selected transfectants, RNA was extracted as previously described and converted to cDNA using SuperScript Reverse Transcriptase (Invitrogen). Quantitative PCR reactions were performed in triplicate on the C1000 Touch Bio-Rad CFX96 real-time PCR detection system for CPSF using primer sets CPSF-1 (5'-[…]-3' and 5'-[…]-3') and CPSF-2 (5'-[…]-3' and 5'-[…]-3') in both control and CPSF over-expressing parasites, and the expression level was normalized to tubulin which was amplified using primers: ‘[…]’ and ‘[…]’.
# T. cruzi Brazil strain = test: Mouse cure assays (daily oral treatment, immunosuppression, qPCR of skeletal muscle, blood microscopy, hemoculture); format: in vivo, C57BL/6 mice; conditions: individual mice
# Protocol: Male or female C57BL/6 mice were intraperitoneally infected with 10^4 trypomastigotes of the Brazil strain. Mouse infection was confirmed at 25-30 dpi by detection of CD8^+ T cells specific against the T. cruzi TSKb20 peptide in blood. Compounds resuspended in 1% carboxymethyl cellulose and 0.1% Tween 80, were administered daily by gavage at the specified concentrations. In order to optimally detect persistent infection, immune responses in the mice were suppressed by intraperitoneal injection of four doses of cyclophosphamide every 2-3 days (200 mg/kg/day), beginning one week after the end of therapeutic treatment. At the end of the immunosuppression regimen, peripheral blood was checked under light microscope for parasites and cultured in LDNT media. Mouse skeletal muscle samples were obtained at the end of the immunosuppression and processed for T. cruzi-DNA detection by qPCR as previously described.
# [5] = system: tdTomato expressing T. cruzi (CL strain); test: Rapid in vivo assay: footpad infection, single oral dose, fluorescence imaging 2 and 4 dpi (proliferation index);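 further: single oral dose of 50 mg/kg given at 2 dpi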; design: species or system C57BL/6 mice; conditions: Fig. 3a; individual footpads
# Protocol: Fluorescent intensity of the feet was measured at 2 dpi before compound administration and at 4 dpi in the Maestro in vivo imaging system equipped with the software Maestro 2.1.0 (CRi) as previously described. The proliferation index was estimated as PI=[(T4d – T2d)/(mUnt4d-mUnt2d)]*100; where T4d and T2d are the fluorescence intensity of the feet of the treated animals at days 4 and 2 post-infection respectively; mUnt4d and mUnt2d are the average fluorescence intensity of the feet of the untreated animals at 4 and 2 dpi respectively.
# T. cruzi = conditions: T. cruzi-infected NHPs; cited from earlier work
# [6] = 48 hours, Fig. 5f, Extended Data Fig. 4d, read-out: IC50 (nM) T. cruzi extra-
# [7] = Trypanosoma cruzi, Vero, in vitro, Fig. 1a, Extended Data Fig. 1a, read-out: T. cruzi IC50
# [8] = Trypanosoma cruzi, Vero, intracellular T. cruzi, Fig. 5f, read-out: IC50 (nM) T. cruzi intra-
# [9] = Trypanosoma cruzi, Vero, 72 h, read-out: % of maximum, WT, single replicates
# [10] = Trypanosoma cruzi, Vero, read-out: WT IC50, WT intracellular amastigotes, control of CPSF3-OE comparison
# [11] = Trypanosoma cruzi, Vero, read-out: WT IC50, WT intracellular amastigotes, control of TcCBP KO comparison
smiles,measurement,setting,value
CC(C)[C@H](NC(=O)c1ccc2c(c1)B(O)OC2)C(=O)OCc1ccccc1 [AN10443],IC50,[1]; [6],13 nM
same,IC50,[2]; [7],670 nM
CC(C)[C@H](NC(=O)c1ccc2c(c1F)B(O)OC2)C(=O)OCc1ccccc1 [AN11622],IC50,[1]; [6],37 nM
same,IC50,[2]; [8],> 1250 nM
Cc1c(C(=O)N[C@H](C(=O)OCc2ccccc2)C(C)C)ccc2c1B(O)OC2 [AN11735],IC50,[1]; [6],1.2 nM
"Cc1c(C(=O)NC(C(=O)OCc2ccc(F)cc2)C(C)C)ccc2c1B(O)OC2 (stereo not shown) [AN11736, 4-fluorobenzyll-valinate amide benzoxaborole]",IC50,[3],618 nM
same,IC50,[4],6.5 nM
same,activity at 0.00407 µM,[2]; [9],46%
same,IC50,[2]; [10],3.2 nM
same,IC50,[2]; [11],3.2 nM
same,% of maximum,"[2]; WT, [uM] -1.43 as printed, single replicates",-1% and 1%
CCc1c(C(=O)N[C@H](C(=O)OCc2ccccc2)C(C)C)ccc2c1B(O)OC2 [AN14557],IC50,[1]; [6],1.5 nM
same,IC50,[2]; [8],37 nM
CC(C)C(NC(=O)c1ccc2c(c1C1CC1)B(O)OC2)C(=O)OCc1ccccc1 (stereo not shown) [AN14577],IC50,[1]; [6],240 nM
same,IC50,[2]; [8],> 1250 nM
CC(C)c1c(C(=O)NC(C(=O)OCc2ccccc2)C(C)C)ccc2c1B(O)OC2 (stereo not shown) [AN14630],IC50,[1]; [6],13 nM
same,IC50,[2]; [8],> 1250 nM
Cc1c(C(=O)N[C@H](C(=O)O)C(C)C)ccc2c1B(O)OC2 [AN14667],activity at 0.1 µM,"[4]; [uM] 0.10, single replicates",97%
same,activity at 0.4 µM,"[4]; [uM] 0.40 as printed, single replicates",102%
same,activity at 0.7 µM,"[4]; [uM] 0.70, single replicates",108%
same,activity at 1 µM,"[4]; [uM] 1.00, single replicates",89%
same,activity at 1.3 µM,"[4]; [uM] 1.30 [sic], single replicates",59%
same,activity at 1.6 µM,"[4]; [uM] 1.60 as printed, single replicates",27%
same,activity at 0.1 µM,[4]; concentration 0.10 [uM] as printed,97%
same,activity at 0.4 µM,[4]; concentration 0.40 [uM] as printed,102%
same,activity at 0.7 µM,[4]; concentration 0.70 [uM] as printed,108%
same,activity at 1 µM,[4]; concentration 1.00 [uM] as printed,89%
same,activity at 1.3 µM,[4]; concentration 1.30 [uM] as printed,59%
same,activity at 1.6 µM,[4]; concentration 1.60 [uM] as printed,27%
same,IC50,"[1]; Fig. 2a, read-out: Extracellular IC50",3900 nM
same,activity at 0.7 µM,"[2]; Trypanosoma cruzi, Vero, 72 h, read-out: % of maximum, WT, [uM] 0.70, single replicates",43%
same,activity at 1 µM,"[2]; Trypanosoma cruzi, Vero, 72 h, read-out: % of maximum, WT, [uM] 1.00, single replicates",0%
same,activity at 0.7 µM,"[2]; Trypanosoma cruzi, Vero, 72 h, read-out: % of maximum, WT, concentration 0.70 [uM] as printed",43%
same,activity at 0.1 µM,"[2]; Trypanosoma cruzi, Vero, 72 h, read-out: % of maximum, intracellular, [uM] 0.10",86%
same,activity at 0.4 µM,"[2]; Trypanosoma cruzi, Vero, 72 h, read-out: % of maximum, intracellular, [uM] 0.40",66%
same,activity at 0.7 µM,"[2]; Trypanosoma cruzi, Vero, 72 h, read-out: % of maximum, intracellular, [uM] 0.70",43%
same,activity at 1.6 µM,"[2]; Trypanosoma cruzi, Vero, 72 h, read-out: % of maximum, intracellular, [uM] 1.60",0%
same,IC50,[2]; [7],5720 nM
same,IC50,"[2]; Trypanosoma cruzi, Vero, intracellular amastigotes, Fig. 2a, read-out: Intracellular IC50",3600 nM
same,reduced activity relative to ester prodrug,[2]; both intra- and extracellular amastigotes,~ 1000 fold
same,% of maximum,"[2]; intracellular, [uM] 1.60",0%
Cc1c(C(=O)N[C@H](C(=O)OC2CCOCC2)C(C)C)ccc2c1B(O)OC2 [AN15572],IC50,[2]; [7],11 nM
Cc1c(C(=O)NC(C(=O)OCC2CCOC2)C(C)C)ccc2c1B(O)OC2 (stereo not shown) [AN16109],Parasite equivalent/ 50 ng of DNA of skeletal muscle,"T. cruzi Brazil strain; Fig. 3c, mice treated for 20 days",0.11 Parasite equivalent/ 50 ng of DNA and 0.27 Parasite equivalent/ 50 ng of DNA and 0.0541 Parasite equivalent/ 50 ng of DNA and 0.0079 Parasite equivalent/ 50 ng of DNA and 0.12 Parasite equivalent/ 50 ng of DNA and 0.0367 Parasite equivalent/ 50 ng of DNA
same,Parasite equivalent/ 50 ng of DNA of skeletal muscle,"T. cruzi Brazil strain; Fig. 3e, mice treated for 40 days with 2.5 mg/kg, 2.5 mg/kg",0.223 Parasite equivalent/ 50 ng of DNA and 0.2345 Parasite equivalent/ 50 ng of DNA and 0.468 Parasite equivalent/ 50 ng of DNA and 0.01907 Parasite equivalent/ 50 ng of DNA and 0.1637 Parasite equivalent/ 50 ng of DNA and 1.455 Parasite equivalent/ 50 ng of DNA and 0.04407 Parasite equivalent/ 50 ng of DNA and 0.06524 Parasite equivalent/ 50 ng of DNA
same,Parasite proliferation index of footpads infected with tdTomato-expressing T. cruzi,[5],52.8 and 35.3 and 33.3 and 35.0 and 26.3 and 26.8 and -3.0 and 4.6 and 35.6 and 29.4
same,IC50,[3],2500 nM
same,IC50,[4],22.7 nM
same,activity at 0.00407 µM,[2]; [9],75%
same,IC50,[2]; [10],6.6 nM
same,IC50,[2]; [11],6.6 nM
same,IC50,[2]; [7],5 nM
same,% of maximum,"[2]; WT, [uM] 0.00 as printed, single replicates",0%
same,% of maximum,"[2]; WT, [uM] -1.91 as printed, single replicates",13%
O=C(Cn1ccnc1[N+](=O)[O-])NCc1ccccc1 [BNZ],Parasite proliferation index of footpads infected with tdTomato-expressing T. cruzi,[5],23.6 and 6.5 and 46.7 and 1.3 and 29.6 and 25.1 and 51.0 and 55.7 and -21.7 and -21.2
CC[C@@H]([C@H](C)O)n1ncn(-c2ccc(N3CCN(c4ccc(OC[C@@H]5CO[C@@](Cn6cncn6)(c6ccc(F)cc6F)C5)cc4)CC3)cc2)c1=O [posaconazole],failures in treatment trial,T. cruzi,100%
